Patent US6670446B1, “N1 modified glycopeptides” (Eli Lilly and Company, priority 1998, dated 2003)

Columns and labels:
Type in all cases: cell-based
[1] = system: Staphylococcus aureus SA1199; assay: MIC, standard broth micro-dilution assay, SA 1199
Method: (§1) The antibacterial efficacy of the present compounds is illustrated by Table III. The minimal inhibitory concentrations (MICs) were determined using a standard broth micro-dilution assay.

[2] = system: Enterococcus faecalis 2041; assay: MIC, standard broth micro-dilution assay, EF 2041
Method: as §1

[3] = system: Sensitive Enterococcus faecium and faecalis; assay: MIC, standard broth micro-dilution assay, Sensitive; settings: geometric mean of 4-6 isolates
Method: as §1

[4] = system: Staphylococcus aureus SA1199A; assay: MIC, standard broth micro-dilution assay, SA 1199A
Method: as §1

[5] = system: Staphylococcus haemolyticus 415; assay: MIC, standard broth micro-dilution assay, SH 415
Method: as §1

[6] = system: Staphylococcus epidermidis 270; assay: MIC, standard broth micro-dilution assay, SE 270
Method: as §1

[7] = system: Resistant Enterococcus faecium and faecalis; assay: MIC, standard broth micro-dilution assay, Resistant; settings: geometric mean of 4-6 isolates
Method: as §1

[8] = system: Enterococcus faecalis 276; assay: MIC, standard broth micro-dilution assay, EF 276
Method: as §1

[9] = system: Staphylococcus aureus 491; assay: MIC, standard broth micro-dilution assay, SA 491
Method: as §1

[10] = system: Haemophilus influenzae RD; assay: MIC, standard broth micro-dilution assay, HFRD
Method: as §1

Escherichia coli EC14 = assay: MIC, standard broth micro-dilution assay, EC 14
Method: as §1

[11] = system: Enterococcus faecium 180-1; assay: MIC, standard broth micro-dilution assay, EF 180-1
Method: as §1

[12] = system: Staphylococcus aureus X400; assay: MIC, standard broth micro-dilution assay, SA X400
Method: as §1

[13] = system: Staphylococcus aureus S13E
Method: as §1

[14] = system: Staphylococcus aureus 447; assay: MIC, standard broth micro-dilution assay, SA 447
Method: as §1

Enterococcus faecium 180 = assay: MIC, standard broth micro-dilution assay, EF 180
Method: as §1

[15] = system: Enterococcus gallinarum 245; assay: MIC, standard broth micro-dilution assay, EG 245
Method: as §1

[16] = system: Staphylococcus haemolyticus 105; assay: MIC, standard broth micro-dilution assay, SH 105
Method: as §1

[17] = system: Staphylococcus aureus 489; assay: MIC, standard broth micro-dilution assay, SA 489
Method: as §1

[18] = system: Staphylococcus aureus X778; assay: MIC, standard broth micro-dilution assay, SA X778
Method: as §1

[19] = system: Staphylococcus aureus 446; assay: MIC, standard broth micro-dilution assay, SA 446
Method: as §1

Row | SMILES | minimal inhibitory concentration (MIC), SA 1199 [1] | minimal inhibitory concentration (MIC), EF 2041 [2] | minimal inhibitory concentration (MIC), Sensitive [3] | minimal inhibitory concentration (MIC), SA 1199A [4] | minimal inhibitory concentration (MIC), SH 415 [5] | minimal inhibitory concentration (MIC), SE 270 [6] | minimal inhibitory concentration (MIC), Resistant [7] | minimal inhibitory concentration (MIC), EF 276 [8] | minimal inhibitory concentration (MIC), SA 491 [9] | minimal inhibitory concentration (MIC), HFRD [10] | minimal inhibitory concentration (MIC), EC 14 (Escherichia coli EC14) | minimal inhibitory concentration (MIC), EF 180-1 [11] | minimal inhibitory concentration (MIC), SA X400 [12] | minimal inhibitory concentration (MIC), SA S13E [13] | minimal inhibitory concentration (MIC), SA 447 [14] | minimal inhibitory concentration (MIC), EF 180 (Enterococcus faecium 180) | minimal inhibitory concentration (MIC), EG 245 [15] | minimal inhibitory concentration (MIC), SH 105 [16] | minimal inhibitory concentration (MIC), SA 489 [17] | minimal inhibitory concentration (MIC), SA X778 [18] | other results
1 | CCCCCCNC(CC(C)C)C(=O)NC1C(=O)NC(CC(N)=O)C(=O)NC2C(=O)NC3C(=O)NC(C(=O)NC(C(=O)O)c4cc(O)cc(O)c4-c4cc3ccc4O)C(OC3CC(C)(N)C(O)C(C)O3)c3ccc(c(Cl)c3)Oc3cc2cc(c3OC2OC(CO)C(O)C(O)C2OC2CC(C)(NCCCCCC)C(O)C(C)O2)Oc2ccc(cc2Cl)C1O [Example 38, N^1-(N-n-hexyl-D-leucine) derivative of N^DISACC-n-hexyl desleucylA82846B] | 1 | ≦.06 | 0.19 | ≦.06 | 1 | 1 | 6.7 | 0.25 | ≦.06 | no | >64 | no growth | 1 | 0.5 | 1 | 2 | 0.5 | 1 | 0.25 | 0.5 | minimal inhibitory concentration (MIC), SA 446 [19]: 1
2 | CC(C)CC(NC(=O)OC(C)(C)C)C(=O)NC1C(=O)NC(CC(N)=O)C(=O)NC2C(=O)NC3C(=O)NC(C(=O)NC(C(=O)O)c4cc(O)cc(O)c4-c4cc3ccc4O)C(OC3CC(C)(N)C(O)C(C)O3)c3ccc(c(Cl)c3)Oc3cc2cc(c3OC2OC(CO)C(O)C(O)C2OC2CC(C)(NCc3ccc(-c4ccccc4)cc3)C(O)C(C)O2)Oc2ccc(cc2Cl)C1O [Example 18, N^1-(N-BOC-D-leucine) derivative of N^DISACC-(p-phenylbenzyl)desleucylA82846B] | 0.5 | ≦.06 | 0.87 | no growth | 1 | 0.25 | 27 | 0.5 | ≦.06 | 16 | >64 | 0.5 | 0.25 | 0.5 | 0.5 | 2 | 1 | 1 | 0.125 | 0.25 | minimal inhibitory concentration (MIC), SA 446 [19]: 0.5
3 | CC1OC(OC2c3ccc(c(Cl)c3)Oc3cc4cc(c3OC3OC(CO)C(O)C(O)C3OC3CC(C)(NCc5ccc(-c6ccccc6)cc5)C(O)C(C)O3)Oc3ccc(cc3Cl)C(O)C(NC(=O)C(Cc3c[nH]c5ccccc35)NC(=O)OC(C)(C)C)C(=O)NC(CC(N)=O)C(=O)NC4C(=O)NC3C(=O)NC2C(=O)NC(C(=O)O)c2cc(O)cc(O)c2-c2cc3ccc2O)CC(C)(N)C1O [Example 25, N^1-(N-BOC-D-tryptophan) derivative of N^DISACC-(p-phenylbenzyl)desleucylA82846B] | 1 | 1 | 1.3 | 0.5 | 4 | 2 | 27 | 2 | 2 | >64 | >64 | ≦.06 | 2 | 2 | 2 | 8 | 2 | 2 | 1 | 2 | minimal inhibitory concentration (MIC), SA 446 [19]: 4
4 | CC1OC(OC2c3ccc(c(Cl)c3)Oc3cc4cc(c3OC3OC(CO)C(O)C(O)C3OC3CC(C)(NCc5ccc(-c6ccccc6)cc5)C(O)C(C)O3)Oc3ccc(cc3Cl)C(O)C(NC(=O)C(N)Cc3ccc(Cl)cc3)C(=O)NC(CC(N)=O)C(=O)NC4C(=O)NC3C(=O)NC2C(=O)NC(C(=O)O)c2cc(O)cc(O)c2-c2cc3ccc2O)CC(C)(N)C1O [Example 22, N^1-[D-3-(p-chlorophenyl)alanine] derivative of N^DISACC-(p-phenylbenzyl)desleucylA82846B] | 2 | 1 | 0.66 | 0.25 | 4 | 0.25 | 6.7 | 1 | 0.5 | >64 | >64 | ≦.06 | 0.5 | 2 | 1 | 2 | 0.25 | 2 | 1 | 1 | minimal inhibitory concentration (MIC), SA 446 [19]: 1
5 | CC1OC(OC2c3ccc(c(Cl)c3)Oc3cc4cc(c3OC3OC(CO)C(O)C(O)C3OC3CC(C)(NCc5ccc(-c6ccccc6)cc5)C(O)C(C)O3)Oc3ccc(cc3Cl)C(O)C(NC(=O)C(Cc3ccc(Cl)cc3)NC(=O)OC(C)(C)C)C(=O)NC(CC(N)=O)C(=O)NC4C(=O)NC3C(=O)NC2C(=O)NC(C(=O)O)c2cc(O)cc(O)c2-c2cc3ccc2O)CC(C)(N)C1O [Example 28, N^1-[N-BOC-L-3-(p-chlorophenyl)alanine] derivative of N^DISACC-(p-phenylbenzyl)desleucylA82846B] | 2 | 2 | 1.7 | 1 | 4 | 1 | 13 | 1 | 2 | >64 | >64 | 0.5 | 2 | 2 | 2 | 2 | 2 | 2 | 1 | 1 | minimal inhibitory concentration (MIC), SA 446 [19]: 4
